This is an account of results in US9266878B2, “Phosphatidylinositol 3-kinase inhibitors” (Gilead Calistoga LLC, priority 2012, dated 2016).

Holding throughout (experiment): Enzymatic activity of PI3K isoforms, TR-FRET assay (PIP3 formation)
Common to all, as to type: biochemical
In general terms: TR-FRET usually uses a lanthanide donor and a delayed reading to cut background.

For one test, the target named is PI3Kδ (Homo sapiens (Human), UniProt O00329). The conditions noted are these: bound given in nM. Here is the method:
(§1) Enzymatic activity of the class I PI3K isoforms was measured using a time-resolved fluorescence resonance energy transfer (TR-FRET) assay that monitors formation of the product 3,4,5-inositol triphosphate molecule (PIP3), as it competes with fluorescently labeled PIP3 for binding to the GRP-1 pleckstrin homology domain protein. An increase in […] product results in a decrease in TR-FRET signal as the labeled fluorophore is displaced from the GRP-1 protein binding site.
(§2) Class I PI3K isoforms were expressed and purified as heterodimeric recombinant proteins. All assay reagents and buffers for the TR-FRET assay were purchased from Millipore. […] After an assay reaction time of 30 minutes at 25° C., reactions were terminated with a final concentration of 10 mM EDTA, 10 nM labeled-PIP3, and 35 nM Europium labeled GRP-1 detector protein before reading TR-FRET on an Envision plate reader (Ex: 340 nm; Em: 615/665 nm; 100 μs delay and 500 μs read window).
(§3) IC50 are reported in units of nM. These assays generally produced results within 3-fold of the reported mean.

For the next test, the target named is PI3Kα (Homo sapiens (Human), UniProt P42336). Particulars: bound given in uM. The method, then: as §1, §2, §3
Another test has as its target PI3Kγ (Homo sapiens (Human), UniProt P48736). The conditions noted are these: bound given in nM. Here is the method:
as §1
Class I PI3K isoforms were expressed and purified as heterodimeric recombinant proteins. All assay reagents and buffers for the TR-FRET assay were purchased from Millipore.
IC50 are reported in units of nM.

Chain of PI3Kδ (O00329 whole entry, the tested form may be a part, canonical isoform): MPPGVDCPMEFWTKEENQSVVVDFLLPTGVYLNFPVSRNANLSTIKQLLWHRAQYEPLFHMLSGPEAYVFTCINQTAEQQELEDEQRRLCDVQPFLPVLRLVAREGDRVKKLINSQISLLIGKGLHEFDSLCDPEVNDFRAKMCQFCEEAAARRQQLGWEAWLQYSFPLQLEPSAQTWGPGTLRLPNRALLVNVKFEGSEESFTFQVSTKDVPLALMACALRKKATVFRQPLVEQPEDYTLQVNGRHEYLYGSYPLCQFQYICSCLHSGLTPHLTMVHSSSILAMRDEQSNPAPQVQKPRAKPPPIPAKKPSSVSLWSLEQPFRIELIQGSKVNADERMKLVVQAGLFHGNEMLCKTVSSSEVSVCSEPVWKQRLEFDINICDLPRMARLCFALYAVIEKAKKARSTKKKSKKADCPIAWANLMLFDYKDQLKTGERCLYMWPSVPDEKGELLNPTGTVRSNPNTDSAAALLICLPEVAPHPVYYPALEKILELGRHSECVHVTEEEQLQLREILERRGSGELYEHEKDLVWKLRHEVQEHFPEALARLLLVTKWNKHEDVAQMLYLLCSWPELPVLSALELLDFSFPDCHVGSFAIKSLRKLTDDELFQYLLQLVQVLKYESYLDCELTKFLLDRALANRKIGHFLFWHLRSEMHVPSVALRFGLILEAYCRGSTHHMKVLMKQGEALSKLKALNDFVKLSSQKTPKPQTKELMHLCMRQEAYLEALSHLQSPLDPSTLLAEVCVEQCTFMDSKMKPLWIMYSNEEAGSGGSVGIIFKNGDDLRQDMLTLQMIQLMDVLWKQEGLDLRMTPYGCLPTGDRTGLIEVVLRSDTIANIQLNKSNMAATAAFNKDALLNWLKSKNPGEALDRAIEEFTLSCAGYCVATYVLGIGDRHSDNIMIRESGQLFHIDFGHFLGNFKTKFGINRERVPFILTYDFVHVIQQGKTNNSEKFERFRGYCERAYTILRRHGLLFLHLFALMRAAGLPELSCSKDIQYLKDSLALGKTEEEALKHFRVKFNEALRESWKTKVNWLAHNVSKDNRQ
Chain of PI3Kδ (P27986 whole entry partner, the tested form may be a part, canonical isoform): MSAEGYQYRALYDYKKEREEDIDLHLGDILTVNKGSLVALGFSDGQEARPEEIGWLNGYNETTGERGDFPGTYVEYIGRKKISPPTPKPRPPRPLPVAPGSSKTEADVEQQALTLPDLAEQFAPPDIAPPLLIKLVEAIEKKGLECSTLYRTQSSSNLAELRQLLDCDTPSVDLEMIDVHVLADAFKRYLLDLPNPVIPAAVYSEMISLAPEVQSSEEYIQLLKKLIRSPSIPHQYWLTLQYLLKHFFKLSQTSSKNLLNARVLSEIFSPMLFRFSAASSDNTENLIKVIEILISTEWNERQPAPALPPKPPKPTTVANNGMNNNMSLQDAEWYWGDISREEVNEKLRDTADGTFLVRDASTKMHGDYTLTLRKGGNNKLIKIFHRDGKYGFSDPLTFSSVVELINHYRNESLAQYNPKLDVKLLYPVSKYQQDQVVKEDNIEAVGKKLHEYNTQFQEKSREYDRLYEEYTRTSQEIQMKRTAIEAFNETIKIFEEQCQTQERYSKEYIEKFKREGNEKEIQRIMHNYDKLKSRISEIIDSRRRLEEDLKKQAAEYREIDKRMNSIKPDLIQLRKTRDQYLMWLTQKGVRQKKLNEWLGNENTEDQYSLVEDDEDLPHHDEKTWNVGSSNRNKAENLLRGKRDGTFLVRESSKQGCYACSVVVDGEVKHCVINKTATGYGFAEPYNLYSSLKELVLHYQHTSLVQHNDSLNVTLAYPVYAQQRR
Chain of PI3Kα (P42336 whole entry): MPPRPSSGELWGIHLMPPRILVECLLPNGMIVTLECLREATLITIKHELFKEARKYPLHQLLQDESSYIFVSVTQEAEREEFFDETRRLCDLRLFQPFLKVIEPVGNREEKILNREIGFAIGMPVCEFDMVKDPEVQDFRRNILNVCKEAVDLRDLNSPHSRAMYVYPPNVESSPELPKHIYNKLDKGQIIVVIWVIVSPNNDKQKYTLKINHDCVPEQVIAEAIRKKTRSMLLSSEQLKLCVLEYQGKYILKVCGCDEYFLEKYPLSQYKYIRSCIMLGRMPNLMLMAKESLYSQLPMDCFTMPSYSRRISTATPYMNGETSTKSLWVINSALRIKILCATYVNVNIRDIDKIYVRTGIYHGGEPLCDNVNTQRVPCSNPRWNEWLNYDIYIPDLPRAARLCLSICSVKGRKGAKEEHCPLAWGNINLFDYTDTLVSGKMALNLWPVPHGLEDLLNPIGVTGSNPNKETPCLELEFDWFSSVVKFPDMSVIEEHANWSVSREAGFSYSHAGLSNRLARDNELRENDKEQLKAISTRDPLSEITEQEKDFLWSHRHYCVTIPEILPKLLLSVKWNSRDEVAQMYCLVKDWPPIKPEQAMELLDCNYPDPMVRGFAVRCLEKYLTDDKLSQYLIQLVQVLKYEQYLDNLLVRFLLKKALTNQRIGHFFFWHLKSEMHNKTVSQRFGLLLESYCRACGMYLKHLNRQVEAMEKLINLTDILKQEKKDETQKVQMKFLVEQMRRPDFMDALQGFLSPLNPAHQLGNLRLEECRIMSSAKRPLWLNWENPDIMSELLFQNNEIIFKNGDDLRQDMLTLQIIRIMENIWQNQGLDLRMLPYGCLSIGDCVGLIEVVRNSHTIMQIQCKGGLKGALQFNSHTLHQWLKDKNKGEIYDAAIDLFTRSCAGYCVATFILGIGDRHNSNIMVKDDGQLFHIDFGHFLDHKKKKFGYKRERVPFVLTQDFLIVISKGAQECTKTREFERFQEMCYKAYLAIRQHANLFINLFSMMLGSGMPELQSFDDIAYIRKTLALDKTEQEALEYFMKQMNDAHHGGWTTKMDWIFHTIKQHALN
Chain of PI3Kα (P27986 whole entry partner): as the sequence (P27986 whole entry partner, the tested form may be a part, canonical isoform) above
Chain of PI3Kγ (P48736 whole entry): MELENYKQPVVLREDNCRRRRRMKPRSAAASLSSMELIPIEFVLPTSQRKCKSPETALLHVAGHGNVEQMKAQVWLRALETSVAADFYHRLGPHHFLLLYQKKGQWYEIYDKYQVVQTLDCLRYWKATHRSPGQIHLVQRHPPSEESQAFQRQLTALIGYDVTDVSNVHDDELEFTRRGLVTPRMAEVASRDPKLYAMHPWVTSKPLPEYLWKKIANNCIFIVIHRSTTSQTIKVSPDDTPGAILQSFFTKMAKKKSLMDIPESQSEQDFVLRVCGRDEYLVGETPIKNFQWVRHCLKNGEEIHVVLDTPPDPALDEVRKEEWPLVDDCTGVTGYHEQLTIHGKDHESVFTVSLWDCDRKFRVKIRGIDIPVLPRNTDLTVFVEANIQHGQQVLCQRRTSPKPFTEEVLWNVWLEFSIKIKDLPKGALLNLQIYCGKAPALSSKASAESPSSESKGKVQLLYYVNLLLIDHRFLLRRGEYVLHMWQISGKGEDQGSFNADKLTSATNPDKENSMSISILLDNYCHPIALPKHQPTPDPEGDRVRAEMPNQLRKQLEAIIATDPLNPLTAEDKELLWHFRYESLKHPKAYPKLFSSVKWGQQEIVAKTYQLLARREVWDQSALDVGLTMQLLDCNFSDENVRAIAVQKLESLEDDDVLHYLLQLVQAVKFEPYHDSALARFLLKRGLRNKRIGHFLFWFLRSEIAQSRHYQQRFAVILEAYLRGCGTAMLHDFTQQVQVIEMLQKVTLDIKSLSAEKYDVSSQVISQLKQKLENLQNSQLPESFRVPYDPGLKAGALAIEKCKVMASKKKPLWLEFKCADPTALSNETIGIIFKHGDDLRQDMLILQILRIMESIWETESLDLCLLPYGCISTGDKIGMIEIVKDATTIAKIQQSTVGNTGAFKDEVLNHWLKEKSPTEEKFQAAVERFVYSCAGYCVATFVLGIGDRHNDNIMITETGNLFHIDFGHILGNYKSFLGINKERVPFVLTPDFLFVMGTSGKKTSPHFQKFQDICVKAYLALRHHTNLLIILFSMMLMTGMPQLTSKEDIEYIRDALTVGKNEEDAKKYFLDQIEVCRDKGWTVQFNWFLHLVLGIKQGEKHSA
Chain of PI3Kγ (Q8WYR1 whole entry partner): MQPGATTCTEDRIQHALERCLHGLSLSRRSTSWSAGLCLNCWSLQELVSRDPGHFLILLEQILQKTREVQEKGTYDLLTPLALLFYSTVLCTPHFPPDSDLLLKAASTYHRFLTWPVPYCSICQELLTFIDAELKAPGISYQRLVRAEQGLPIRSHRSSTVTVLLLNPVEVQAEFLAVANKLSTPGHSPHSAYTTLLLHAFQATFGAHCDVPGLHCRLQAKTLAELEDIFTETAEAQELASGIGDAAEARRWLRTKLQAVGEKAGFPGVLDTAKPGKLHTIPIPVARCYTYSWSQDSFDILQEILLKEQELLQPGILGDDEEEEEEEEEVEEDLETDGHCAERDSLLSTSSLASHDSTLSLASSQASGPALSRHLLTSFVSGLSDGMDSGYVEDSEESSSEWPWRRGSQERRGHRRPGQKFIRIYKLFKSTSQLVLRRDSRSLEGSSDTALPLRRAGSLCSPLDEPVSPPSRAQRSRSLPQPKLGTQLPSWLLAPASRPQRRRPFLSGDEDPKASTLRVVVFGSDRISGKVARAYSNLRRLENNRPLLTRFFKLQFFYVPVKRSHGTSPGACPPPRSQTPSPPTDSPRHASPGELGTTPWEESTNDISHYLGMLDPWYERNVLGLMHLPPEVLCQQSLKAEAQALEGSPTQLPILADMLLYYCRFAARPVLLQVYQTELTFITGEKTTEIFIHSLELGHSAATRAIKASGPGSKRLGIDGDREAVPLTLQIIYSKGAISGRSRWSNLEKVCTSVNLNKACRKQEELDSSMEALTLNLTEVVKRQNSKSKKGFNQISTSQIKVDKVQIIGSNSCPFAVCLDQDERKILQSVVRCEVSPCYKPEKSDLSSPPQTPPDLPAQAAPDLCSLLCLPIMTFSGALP

As a reminder, the IC50 is the concentration that inhibits the measured activity by half. On to `C[C@H](Nc1ncnc(N)c1C#Cc1ccc(F)cn1)c1nc2cccc(Cl)c2c(=O)n1-c1ccccc1` [Compound 48a, (S)-2-(1-(6-amino-5-((5-fluoropyridin-2-yl)ethynyl)pyrimidin-4-ylamino)ethyl)-5-chloro-3-phenylquinazolin-4(3H)-one], for which the 50% inhibitory concentration (IC50) on PI3Kδ is < 100 nM; at PI3Kα, > 1 µM.
In the same order, the values of `C[C@H](Nc1ncnc(N)c1C#Cc1cnccn1)c1nc2cccc(C(F)F)c2c(=O)n1-c1ccccc1` [Compound 76a, (S)-2-(1-((6-amino-5-(pyrazin-2-ylethynyl)pyrimidin-4-yl)amino)ethyl)-5-(difluoromethyl)-3-phenylquinazolin-4(3H)-one] are < 100 nM and > 1 µM.
For `C[C@H](Nc1ncnc(N)c1C#Cc1ccc(F)cn1)c1nc2c(F)ccc(Cl)c2c(=O)n1-c1ccccc1` [Compound 6a, (S)-2-(1-(6-amino-5-((5-fluoropyridin-2-yl)ethynyl)pyrimidin-4-ylamino)ethyl)-5-chloro-8-fluoro-3-phenylquinazolin-4(3H)-one], in that order: < 100 nM and > 1 µM.
In the same order, the values of `Cc1ccc(F)c2nc([C@H](C)Nc3ncnc(N)c3C#Cc3ccc(F)cn3)n(-c3ccccc3)c(=O)c12` [Compound 62a, (S)-2-(1-((6-amino-5-((5-fluoropyridin-2-yl)ethynyl)pyrimidin-4-yl)amino)ethyl)-8-fluoro-5-methyl-3-phenylquinazolin-4(3H)-one] are < 100 nM and > 1 µM.
With `C[C@H](Nc1ncnc(N)c1C#Cc1cnc(N)nc1)c1nc2cccc(Cl)c2c(=O)n1-c1cc(F)cc(F)c1` [Compound 32a, (S)-2-(1-(6-amino-5-((2-aminopyrimidin-5-yl)ethynyl)pyrimidin-4-ylamino)ethyl)-5-chloro-3-(3,5-difluorophenyl)quinazolin-4(3H)-one], the IC50 on PI3Kδ is < 100 nM.
In the case of `COc1ccc(C#Cc2c(N)ncnc2N[C@@H](C)c2nc3c(F)cccc3c(=O)n2-c2ccccc2)nc1` [Compound 12a, (S)-2-(1-(6-amino-5-((5-methoxypyridin-2-yl)ethynyl)pyrimidin-4-ylamino)ethyl)-8-fluoro-3-phenylquinazolin-4(3H)-one], the concentration for half-maximal inhibition (IC50) against PI3Kδ was < 100 nM; on PI3Kα it was > 1 µM.
`C[C@H](Nc1ncnc(N)c1C#Cc1cnccn1)c1nc2cccc(Cl)c2c(=O)n1-c1cccc(Cl)c1` [Compound 89a, (S)-2-(1-((6-amino-5-(pyrazin-2-ylethynyl)pyrimidin-4-yl)amino)ethyl)-5-chloro-3-(3-chlorophenyl)quinazolin-4(3H)-one]: the IC50 on PI3Kδ is < 100 nM; at PI3Kα, > 1 µM.
As to `C[C@H](Nc1ncnc(N)c1C#Cc1ccccc1)c1nc2cccc(C#N)c2c(=O)n1-c1ccccc1` [Compound 114a, (S)-2-(1-((6-amino-5-(phenylethynyl)pyrimidin-4-yl)amino)ethyl)-4-oxo-3-phenyl-3,4-dihydroquinazoline-5-carbonitrile], the 50% inhibitory concentration (IC50) is < 100 nM at PI3Kδ and > 1 µM on PI3Kα.
Regarding `COc1cc(F)cc(C#Cc2c(N)ncnc2N[C@@H](C)c2nc3cccc(Cl)c3c(=O)n2-c2ccccc2)c1` [Compound 47a, (S)-2-(1-(6-amino-5-((3-fluoro-5-methoxyphenyl)ethynyl)pyrimidin-4-ylamino)ethyl)-5-chloro-3-phenylquinazolin-4(3H)-one], the IC50 on PI3Kδ was < 100 nM; against PI3Kα, > 1 µM.
In the case of `CCNS(=O)(=O)c1cccc(-n2c([C@H](C)Nc3ncnc(N)c3C#Cc3ccccn3)nc3cccc(Cl)c3c2=O)c1` [Compound 39a, (S)-3-(2-(1-(6-amino-5-(pyridin-2-ylethynyl)pyrimidin-4-ylamino)ethyl)-5-chloro-4-oxoquinazolin-3(4H)-yl)-N-ethylbenzenesulfonamide], the IC50 against PI3Kδ is < 100 nM.
Consider `C[C@H](Nc1ncnc(N)c1C#Cc1cnccn1)c1nc2cccc(Cl)c2c(=O)n1-c1cccc(CNS(C)(=O)=O)c1` [Compound 123a, (S)—N-(3-(2-(1-((6-amino-5-(pyrazin-2-ylethynyl)pyrimidin-4-yl)amino)ethyl)-5-chloro-4-oxoquinazolin-3(4H)-yl)benzyl)methanesulfonamide], for which the IC50 is < 100 nM against PI3Kδ and > 1 µM against PI3Kα.
With `C[C@H](Nc1ncnc(N)c1C#Cc1ccccc1)c1nc2cccc(F)c2c(=O)n1-c1cccc(F)c1` [Compound 111a, (S)-2-(1-((6-amino-5-(phenylethynyl)pyrimidin-4-yl)amino)ethyl)-5-fluoro-3-(3-fluorophenyl)quinazolin-4(3H)-one], the figures for the IC50 against PI3Kδ and on PI3Kα were < 100 nM and > 1 µM, respectively.
Consider `C[C@H](Nc1nc(N)nc(N)c1C#Cc1ccccc1)c1nc2cccc(Cl)c2c(=O)n1-c1ccccc1` [Compound 25a, 5-chloro-2-(1-((2,6-diamino-5-(phenylethynyl)pyrimidin-4-yl)amino)ethyl)-3-phenylquinazolin-4(3H)-one], for which the IC50 on PI3Kδ and at PI3Kγ was < 100 nM throughout.
Take `Cc1cccc2nc([C@H](C)Nc3ncnc(N)c3C#Cc3ncccn3)n(-c3ccccc3)c(=O)c12` [Compound 104a, (S)-2-(1-((6-amino-5-(pyrimidin-2-ylethynyl)pyrimidin-4-yl)amino)ethyl)-5-methyl-3-phenylquinazolin-4(3H)-one]: the IC50 against PI3Kδ was < 100 nM; against PI3Kα it was > 1 µM.
Turning to `C[C@H](Nc1ncnc(N)c1C#Cc1ccccn1)c1nc2cccc(Cl)c2c(=O)n1-c1cccc(S(N)(=O)=O)c1` [Compound 40a, (S)-3-(2-(1-(6-amino-5-(pyridin-2-ylethynyl)pyrimidin-4-ylamino)ethyl)-5-chloro-4-oxoquinazolin-3(4H)-yl)benzenesulfonamide], the IC50 against PI3Kδ was < 100 nM.
Regarding `C[C@H](Nc1ncnc(N)c1C#Cc1cccnc1)c1nc2cccc(Cl)c2c(=O)n1-c1ccccc1` [Compound 44a, (S)-2-(1-(6-amino-5-(pyridin-3-ylethynyl)pyrimidin-4-ylamino)ethyl)-5-chloro-3-phenylquinazolin-4(3H)-one], the IC50 against PI3Kδ and on PI3Kγ was < 100 nM throughout.
On to `Nc1ncnc(N2CCC[C@H]2c2nc3cccc(Cl)c3c(=O)n2-c2ccccc2)c1C#Cc1ccccn1` [Compound 37a, (S)-2-(1-(6-amino-5-(pyridin-2-ylethynyl)pyrimidin-4-yl)pyrrolidin-2-yl)-5-chloro-3-phenylquinazolin-4(3H)-one], for which the IC50 on PI3Kδ is < 100 nM; at PI3Kα it was > 1 µM.
Take `C[C@H](Nc1ncnc(N)c1C#Cc1cc(C(F)(F)F)ccn1)c1nc2cccc(Cl)c2c(=O)n1-c1ccccc1` [Compound 148a, (S)-2-(1-((6-amino-5-((4-(trifluoromethyl)pyridin-2-yl)ethynyl)pyrimidin-4-yl)amino)ethyl)-5-chloro-3-phenylquinazolin-4(3H)-one]: the 50% inhibitory concentration (IC50) is < 100 nM against PI3Kδ and > 1 µM against PI3Kα.
For `COc1ccc(C#Cc2c(N)ncnc2N[C@@H](C)c2nc3c(Cl)ccc(Cl)c3c(=O)n2-c2ccccc2)nc1` [Compound 10a, (S)-2-(1-(6-amino-5-((5-methoxypyridin-2-yl)ethynyl)pyrimidin-4-ylamino)ethyl)-5,8-dichloro-3-phenylquinazolin-4(3H)-one], in that order: < 100 nM and > 1 µM.
Turning to `Cc1cccc2nc([C@H](C)Nc3ncnc(N)c3C#Cc3ccc(F)cn3)n(-c3ccccc3)c(=O)c12` [Compound 54a, (S)-2-(1-((6-amino-5-((5-fluoropyridin-2-yl)ethynyl)pyrimidin-4-yl)amino)ethyl)-5-methyl-3-phenylquinazolin-4(3H)-one], the IC50 against PI3Kδ is < 100 nM; against PI3Kα, > 1 µM.
Consider `C[C@H](Nc1ncnc(N)c1C#Cc1cccc(C(F)(F)F)n1)c1nc2cccc(Cl)c2c(=O)n1-c1ccccc1` [Compound 151a, (S)-2-(1-((6-amino-5-((6-(trifluoromethyl)pyridin-2-yl)ethynyl)pyrimidin-4-yl)amino)ethyl)-5-chloro-3-phenylquinazolin-4(3H)-one], for which the IC50 was < 100 nM on PI3Kδ and > 1 µM against PI3Kα.
For `C[C@H](Nc1ncnc(N)c1C#Cc1ncccn1)c1nc2cccc(Cl)c2c(=O)n1-c1ccccc1` [Compound 102a, (S)-2-(1-((6-amino-5-(pyrimidin-2-ylethynyl)pyrimidin-4-yl)amino)ethyl)-5-chloro-3-phenylquinazolin-4(3H)-one], in that order: < 100 nM and > 1 µM.
In the same order, the values of `CC(=O)c1cccc(C#Cc2c(N)ncnc2N[C@@H](C)c2nc3cccc(Cl)c3c(=O)n2-c2ccccc2)n1` [Compound 153a, (S)-2-(1-((5-((6-acetylpyridin-2-yl)ethynyl)-6-aminopyrimidin-4-yl)amino)ethyl)-5-chloro-3-phenylquinazolin-4(3H)-one] are < 100 nM and > 1 µM.
For `C[C@H](Nc1ncnc(N)c1C#Cc1ccc(N)cn1)c1nc2cccc(Cl)c2c(=O)n1-c1cc(F)cc(F)c1` [Compound 34a, (S)-2-(1-(6-amino-5-((5-aminopyridin-2-yl)ethynyl)pyrimidin-4-ylamino)ethyl)-5-chloro-3-(3,5-difluorophenyl)quinazolin-4(3H)-one], in that order: < 100 nM and > 1 µM.
